Data reported in patent US6921757B2, “Organic compounds” (Novartis AG, priority 2000, dated 2005).
Like-named read-outs stand apart in the source and are kept apart here.

Assays:
[1] = test system: TNF-alpha synthesis and release from the human macrophage cell line U937; test: Inhibition of TNF-alpha synthesis and release from the human macrophage cell line U937; format: cell-based
From the text: Accordingly, the invention also provides a compound of formula I for use as a pharmaceutical. […] Methods (1997) 202:49-57; Renzi et al, Am. Rev. Respir. Dis. (1993) 148:932-939; Tsuyuki et al., J. Clin. Invest. (1995) 96:2924-2931; and Cemadas et al (1999) Am. J. Respir. Cell Mol. Biol. 20:1-8.

lung eosinophilia = test: Inhibition of lung eosinophilia in ovalbumin-sensitised Brown Norway rats; format: in vivo; details: 3 mg/kg intratracheally as dry powder lactose blend, 24 h before ovalbumin aerosol; lung lavage 24 h after challenge
Description: In vivo anti-inflammatory activity may be assessed by inhibition of lung eosinophilia in rats using a modification of the method of Szarka et al op cit. Male Brown Norway rats (approximately 200 g) are sensitised on day 1 with an intraperitonial injection of 0.5 ml of a mixture of ovalbumin (0.02 mg/ml) and aluminium hydroxide (20 mg/ml), followed by Acellulare pertussis adsorbat vaccine (0.2 ml of a 1:4 dilution with 0.9% saline). The procedure is repeated on day 15 and day 21. […] The lungs are removed and after lavage with Hank's solution (balanced salt solution, 100 ml; EDTA 100 mM, 100 ml; HPES 1M, 10 ml, water 1000 ml), eosinophil numbers in the recovered solution are quantified directly using a Corbas Helios 5Diff apparatus (Hoffman-LaRoche).

[2] = Systemic side effects: reduction in thymus weight on chronic administration to rats; format: in vivo, Sprague-Dawley rats
Description: Systemic side effects may be assessed by reduction in thymus weight on chronic administration to rats. Male Sprague-Dawley rats (approximately 250 g) are treated once daily for 4 days with the test compound administered at a dose of 1 mg/kg either orally as a hydroxypropyl cellulose suspension or intratracheally under isoflurane anaesthesia as a dry powder lactose blend. On day 5 the rats are sacrificed, autopsy is performed and the weight of the thymus is determined.

[3] = Homo sapiens, U-937, read-out: IC50 inhibition of TNF-alpha synthesis and release

Row | SMILES | IC50 [1, 3] [nM] | reduction in eosinophil count compared to vehicle control (lung eosinophilia) [%] | reduction in thymus weight compared to vehicle control when dosed intratracheally ([2]; 1 mg/kg intratracheally once daily for 4 days, dry powder lactose blend) [%] | reduction in thymus weight compared to vehicle control when dosed orally ([2]; 1 mg/kg orally once daily for 4 days, hydroxypropyl cellulose suspension) [%] | IC50 ([1]; U937 human macrophage cell line, read-out: IC50 inhibition of TNF-alpha synthesis and release) [nM]
1 | COC(=O)[C@@]1(OC(=O)c2sccc2C)[C@H](C)CC2C3C[C@H](F)C4=CC(=O)C=C[C@]4(C)[C@@]3(Cl)[C@@H](O)C[C@@]21C (stereo partly drawn) [Example 26, 3-methylthiophene-2-carboxylic acid (6S,9R,10S,11S,13S,16R,17R)-9-chloro-6-fluoro-11-hydroxy-17-methoxycarbonyl-10,13,16-trimethyl-3-oxo-6,7,8,9,10,11,12,13,14,15,16,17-dodecahydro-3H-cyclopenta[a]phenanthren-17-yl ester] | 0.024 | 63 | – | – | –
2 | COC(=O)[C@@]1(OC(=O)C2CC2)[C@@H](C)CC2C3C[C@H](F)C4=CC(=O)C=C[C@]4(C)[C@@]3(Cl)[C@@H](O)C[C@@]21C (stereo partly drawn) [Example 34, (6S,9R,10S,11S,13S,16S,17R)-9-chloro-17-cyclopropanecarbonyloxy-6-fluoro-11-hydroxy-10,13,16-trimethyl-3-oxo-6,7,8,9,10,11,12,13,14,15,16,17-dodecahydro-3H-cyclopenta[a]phenanthrene-17-carboxylic acid methyl ester] | 0.1 | 90 | – | – | –
3 | COC(=O)[C@@]1(OC(=O)c2cnc(C)cn2)[C@H](C)CC2C3C[C@H](F)C4=CC(=O)C=C[C@]4(C)[C@@]3(Cl)[C@@H](O)C[C@@]21C (some centres unmarked) [Example 99] | – | 48 | 70 | 0 | 0.106
